The record followed here is paper PMC6140548 (Oncoimmunology, 2018).

The assay has as its target HLA-A02:01 (MHC-I) on the surface of TAP-deficient T2 cells (Homo sapiens, UniProt P04439, D140Y/D185E/D98H/E176V/E277Q/G131W/G231S/I119V/I121R/I166T/I218V/L300P/L318F/N151K/N90K/P208A/P217A/Q86G/Q94H/R138H/R169H/T345S). Briefly: Peptide binding assay using TAP deficient T2 cells. It is filed as cell-based. Particulars: PAX7-encoded 9-mer; statement of the discussion.

Consider GLVSSISRV, for which the “affinity for HLA-A02:01 (in words)” value is “very high affinity”.
